Experiments:
[1] = molecular target: Protein kinase C eta type (Homo sapiens) (UniProt P24723); conditions: Compound concentration 1000.0 nM
[2] = molecular target: NUAK family SNF1-like kinase 1 (Homo sapiens) (UniProt O60285); conditions: Compound concentration 1000.0 nM
[3] = molecular target: Serine/threonine-protein kinase 4 (Homo sapiens) (UniProt Q13043); conditions: Compound concentration 1000.0 nM
[4] = molecular target: Calcium/calmodulin-dependent protein kinase type 1B (Homo sapiens) (UniProt Q6P2M8); conditions: Compound concentration 1000.0 nM
[5] = test system: Tyrosine-protein kinase ABL1 (Homo sapiens), P00519 [M351T]; conditions: Compound concentration 1000.0 nM
[6] = test system: Phosphatidylinositol 4,5-bisphosphate 3-kinase catalytic subunit alpha isoform (Homo sapiens), P42336 [M1043I]; conditions: Compound concentration 1000.0 nM
[7] = molecular target: Hepatocyte growth factor receptor (Homo sapiens) (UniProt P08581); conditions: Compound concentration 1000.0 nM
[8] = molecular target: T1, Muscarinic acetylcholine receptor M2 (Homo sapiens) (UniProt P08172); conditions: Compound concentration 10.0 uM
T1 sequence (whole entry): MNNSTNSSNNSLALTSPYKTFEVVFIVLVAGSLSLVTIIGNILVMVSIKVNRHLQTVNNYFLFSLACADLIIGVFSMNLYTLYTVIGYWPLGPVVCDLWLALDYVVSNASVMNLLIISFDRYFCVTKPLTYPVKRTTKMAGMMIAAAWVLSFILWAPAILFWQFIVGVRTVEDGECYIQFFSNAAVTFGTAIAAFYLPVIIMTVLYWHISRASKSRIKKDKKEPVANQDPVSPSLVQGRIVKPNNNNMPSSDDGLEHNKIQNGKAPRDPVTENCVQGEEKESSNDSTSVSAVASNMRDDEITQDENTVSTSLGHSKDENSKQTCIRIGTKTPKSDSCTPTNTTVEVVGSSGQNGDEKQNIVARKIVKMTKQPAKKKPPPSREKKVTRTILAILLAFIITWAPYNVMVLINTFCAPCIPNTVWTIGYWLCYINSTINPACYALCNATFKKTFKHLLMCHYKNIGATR

[9] = molecular target: Cyclin-dependent kinase 18 (Homo sapiens) (UniProt Q07002); conditions: Compound concentration 1000.0 nM
[10] = molecular target: Muscle, skeletal receptor tyrosine-protein kinase (Homo sapiens) (UniProt O15146); conditions: Compound concentration 1000.0 nM
[11] = molecular target: Homeodomain-interacting protein kinase 4 (Homo sapiens) (UniProt Q8NE63); conditions: Compound concentration 1000.0 nM
[12] = molecular target: Leukocyte tyrosine kinase receptor (Homo sapiens) (UniProt P29376); conditions: Compound concentration 1000.0 nM
[13] = test system: Mast/stem cell growth factor receptor Kit (Homo sapiens), P10721 [V559D,V654A]; conditions: Compound concentration 1000.0 nM
[14] = test system: ALK tyrosine kinase receptor (Homo sapiens), Q9UM73 [C1156Y]; conditions: Compound concentration 1000.0 nM
[15] = molecular target: Dual serine/threonine and tyrosine protein kinase (Homo sapiens) (UniProt Q6XUX3); conditions: Compound concentration 1000.0 nM
[16] = molecular target: Ribosomal protein S6 kinase alpha-6 (Homo sapiens) (UniProt Q9UK32); conditions: Compound concentration 1000.0 nM
[17] = molecular target: T2, Alpha-1A adrenergic receptor (Homo sapiens) (UniProt P35348); conditions: Compound concentration 10.0 uM
T2 sequence (whole entry): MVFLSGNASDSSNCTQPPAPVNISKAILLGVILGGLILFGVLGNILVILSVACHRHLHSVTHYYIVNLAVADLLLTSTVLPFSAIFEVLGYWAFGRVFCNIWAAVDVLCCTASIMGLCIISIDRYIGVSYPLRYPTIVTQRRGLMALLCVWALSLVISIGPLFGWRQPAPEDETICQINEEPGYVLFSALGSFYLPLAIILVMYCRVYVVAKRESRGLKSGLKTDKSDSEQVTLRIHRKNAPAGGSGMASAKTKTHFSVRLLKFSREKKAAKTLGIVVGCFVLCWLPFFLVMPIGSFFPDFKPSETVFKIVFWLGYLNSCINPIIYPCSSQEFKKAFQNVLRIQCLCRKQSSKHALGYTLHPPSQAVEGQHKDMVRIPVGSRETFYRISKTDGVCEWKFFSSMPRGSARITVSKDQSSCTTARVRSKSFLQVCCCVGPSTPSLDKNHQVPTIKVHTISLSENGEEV

[18] = molecular target: Ribosomal protein S6 kinase alpha-4 (Homo sapiens) (UniProt O75676); conditions: Compound concentration 1000.0 nM
[19] = molecular target: Serine/threonine-protein kinase Sgk3 (Homo sapiens) (UniProt Q96BR1); conditions: Compound concentration 1000.0 nM
Serine/threonine-protein kinase Sgk3 (Homo sapiens), sequence (Q96BR1 whole entry): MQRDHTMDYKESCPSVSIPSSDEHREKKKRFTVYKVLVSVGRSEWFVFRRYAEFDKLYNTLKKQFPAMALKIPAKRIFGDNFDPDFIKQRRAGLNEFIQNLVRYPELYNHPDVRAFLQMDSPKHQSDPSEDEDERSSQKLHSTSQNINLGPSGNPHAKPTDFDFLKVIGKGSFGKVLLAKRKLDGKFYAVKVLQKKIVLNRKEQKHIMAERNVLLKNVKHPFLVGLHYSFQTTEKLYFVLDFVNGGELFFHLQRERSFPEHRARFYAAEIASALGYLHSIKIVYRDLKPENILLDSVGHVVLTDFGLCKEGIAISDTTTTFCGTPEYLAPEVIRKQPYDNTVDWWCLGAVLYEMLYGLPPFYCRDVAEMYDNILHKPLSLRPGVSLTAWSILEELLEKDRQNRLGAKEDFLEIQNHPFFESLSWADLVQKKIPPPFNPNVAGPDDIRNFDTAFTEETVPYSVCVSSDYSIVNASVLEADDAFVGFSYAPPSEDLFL

[20] = molecular target: Misshapen-like kinase 1 (Homo sapiens) (UniProt Q8N4C8); conditions: Compound concentration 1000.0 nM
Misshapen-like kinase 1 (Homo sapiens), sequence (Q8N4C8 whole entry, looked up): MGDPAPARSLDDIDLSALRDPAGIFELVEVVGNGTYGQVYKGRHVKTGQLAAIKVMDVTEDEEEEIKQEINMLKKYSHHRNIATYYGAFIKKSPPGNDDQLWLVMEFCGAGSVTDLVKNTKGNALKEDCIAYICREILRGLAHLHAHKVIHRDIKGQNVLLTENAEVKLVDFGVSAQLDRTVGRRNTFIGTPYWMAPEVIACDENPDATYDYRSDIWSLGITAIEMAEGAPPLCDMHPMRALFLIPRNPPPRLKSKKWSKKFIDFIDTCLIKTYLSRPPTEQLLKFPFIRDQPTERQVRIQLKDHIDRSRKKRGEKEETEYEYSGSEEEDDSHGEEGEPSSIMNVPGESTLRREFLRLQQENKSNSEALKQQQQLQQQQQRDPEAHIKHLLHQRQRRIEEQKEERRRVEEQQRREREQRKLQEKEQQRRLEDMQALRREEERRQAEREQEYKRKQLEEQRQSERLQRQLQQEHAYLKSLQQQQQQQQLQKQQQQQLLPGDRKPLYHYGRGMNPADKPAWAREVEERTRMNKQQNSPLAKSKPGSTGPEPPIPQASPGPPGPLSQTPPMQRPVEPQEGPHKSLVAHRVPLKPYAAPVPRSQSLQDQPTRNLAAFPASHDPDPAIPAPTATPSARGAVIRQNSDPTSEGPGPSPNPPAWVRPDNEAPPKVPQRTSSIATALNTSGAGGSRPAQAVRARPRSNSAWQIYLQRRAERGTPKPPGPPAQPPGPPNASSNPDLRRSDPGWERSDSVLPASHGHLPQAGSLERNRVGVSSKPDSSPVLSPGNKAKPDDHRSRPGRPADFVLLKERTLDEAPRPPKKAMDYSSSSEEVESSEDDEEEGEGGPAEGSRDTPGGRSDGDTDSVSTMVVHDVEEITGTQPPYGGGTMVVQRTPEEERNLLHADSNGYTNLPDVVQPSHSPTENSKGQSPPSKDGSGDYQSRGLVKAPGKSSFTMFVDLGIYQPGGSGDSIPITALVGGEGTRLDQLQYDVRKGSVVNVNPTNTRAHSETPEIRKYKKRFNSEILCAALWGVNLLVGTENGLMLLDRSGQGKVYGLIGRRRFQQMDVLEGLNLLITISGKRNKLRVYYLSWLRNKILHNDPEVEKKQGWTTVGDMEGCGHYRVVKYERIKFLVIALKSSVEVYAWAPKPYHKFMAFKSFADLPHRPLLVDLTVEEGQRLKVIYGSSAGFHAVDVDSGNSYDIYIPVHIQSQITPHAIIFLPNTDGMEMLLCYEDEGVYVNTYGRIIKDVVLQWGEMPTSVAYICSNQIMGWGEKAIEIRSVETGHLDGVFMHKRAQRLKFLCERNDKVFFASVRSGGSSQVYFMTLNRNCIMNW

[21] = molecular target: Ribosomal protein S6 kinase alpha-5 (Homo sapiens) (UniProt O75582); conditions: Compound concentration 1000.0 nM
[22] = molecular target: Serine/threonine-protein kinase SIK3 (Homo sapiens) (UniProt Q9Y2K2); conditions: Compound concentration 1000.0 nM
[23] = molecular target: Serine/threonine-protein kinase TNNI3K (Homo sapiens) (UniProt Q59H18); conditions: Compound concentration 1000.0 nM
[24] = molecular target: Mitogen-activated protein kinase 3 (Homo sapiens) (UniProt P27361); conditions: Compound concentration 1000.0 nM
Mitogen-activated protein kinase 3 (Homo sapiens), sequence (P27361 whole entry): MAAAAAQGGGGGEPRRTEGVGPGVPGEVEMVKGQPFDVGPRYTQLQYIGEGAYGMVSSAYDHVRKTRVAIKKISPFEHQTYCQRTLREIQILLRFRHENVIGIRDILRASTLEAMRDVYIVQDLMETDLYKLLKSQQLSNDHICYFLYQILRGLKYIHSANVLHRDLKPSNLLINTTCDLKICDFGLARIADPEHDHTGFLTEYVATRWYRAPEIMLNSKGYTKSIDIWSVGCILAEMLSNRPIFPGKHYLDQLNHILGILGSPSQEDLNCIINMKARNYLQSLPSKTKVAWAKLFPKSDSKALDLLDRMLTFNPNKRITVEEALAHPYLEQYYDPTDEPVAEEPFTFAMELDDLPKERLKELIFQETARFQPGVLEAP

[25] = molecular target: Serine/threonine-protein kinase NIM1 (Homo sapiens) (UniProt Q8IY84); conditions: Compound concentration 1000.0 nM
[26] = molecular target: Ribosomal protein S6 kinase alpha-3 (Homo sapiens) (UniProt P51812); conditions: Compound concentration 1000.0 nM
[27] = molecular target: Serine/threonine-protein kinase WNK1 (Homo sapiens) (UniProt Q9H4A3); conditions: Compound concentration 1000.0 nM
[28] = molecular target: Cyclin-dependent kinase 9 (Homo sapiens) (UniProt P50750); conditions: Compound concentration 1000.0 nM
[29] = molecular target: TRAF2 and NCK-interacting protein kinase (Homo sapiens) (UniProt Q9UKE5); conditions: Compound concentration 1000.0 nM
TRAF2 and NCK-interacting protein kinase (Homo sapiens), sequence (Q9UKE5 whole entry, looked up): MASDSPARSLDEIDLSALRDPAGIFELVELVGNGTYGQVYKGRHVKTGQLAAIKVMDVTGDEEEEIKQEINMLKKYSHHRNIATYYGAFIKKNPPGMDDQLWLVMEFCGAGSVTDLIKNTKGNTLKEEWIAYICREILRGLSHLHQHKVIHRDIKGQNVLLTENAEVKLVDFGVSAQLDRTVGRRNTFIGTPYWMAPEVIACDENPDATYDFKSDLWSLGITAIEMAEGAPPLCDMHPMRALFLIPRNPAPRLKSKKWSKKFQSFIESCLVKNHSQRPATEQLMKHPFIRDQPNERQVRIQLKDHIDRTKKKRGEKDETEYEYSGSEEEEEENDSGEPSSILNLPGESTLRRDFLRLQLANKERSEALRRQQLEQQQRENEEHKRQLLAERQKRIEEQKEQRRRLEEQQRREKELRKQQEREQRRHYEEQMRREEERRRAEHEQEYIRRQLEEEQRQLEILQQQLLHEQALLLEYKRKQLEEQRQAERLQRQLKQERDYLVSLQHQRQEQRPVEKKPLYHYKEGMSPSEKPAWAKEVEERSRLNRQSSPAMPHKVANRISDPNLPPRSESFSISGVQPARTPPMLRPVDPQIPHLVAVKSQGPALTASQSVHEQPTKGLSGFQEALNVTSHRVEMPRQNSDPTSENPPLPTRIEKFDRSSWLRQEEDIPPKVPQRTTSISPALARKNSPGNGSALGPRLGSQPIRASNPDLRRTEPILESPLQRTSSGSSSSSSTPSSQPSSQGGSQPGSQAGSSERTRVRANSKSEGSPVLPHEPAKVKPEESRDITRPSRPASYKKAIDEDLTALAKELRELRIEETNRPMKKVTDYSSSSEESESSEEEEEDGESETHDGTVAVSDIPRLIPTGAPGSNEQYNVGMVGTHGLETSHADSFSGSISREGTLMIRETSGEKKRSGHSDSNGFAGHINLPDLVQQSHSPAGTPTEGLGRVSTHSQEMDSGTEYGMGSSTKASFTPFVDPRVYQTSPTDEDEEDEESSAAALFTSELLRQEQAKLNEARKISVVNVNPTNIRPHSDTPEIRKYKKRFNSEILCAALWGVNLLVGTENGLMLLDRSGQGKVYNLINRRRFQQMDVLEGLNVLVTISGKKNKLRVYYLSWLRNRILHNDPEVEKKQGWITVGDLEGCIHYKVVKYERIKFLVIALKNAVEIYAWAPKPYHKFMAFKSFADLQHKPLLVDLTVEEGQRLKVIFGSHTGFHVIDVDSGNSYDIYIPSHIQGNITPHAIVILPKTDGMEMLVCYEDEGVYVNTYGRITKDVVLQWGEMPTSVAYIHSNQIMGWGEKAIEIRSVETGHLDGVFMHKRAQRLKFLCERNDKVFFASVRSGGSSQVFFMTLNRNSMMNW

[30] = molecular target: Death-associated protein kinase 2 (Homo sapiens) (UniProt Q9UIK4); conditions: Compound concentration 1000.0 nM
Death-associated protein kinase 2 (Homo sapiens), sequence (Q9UIK4 whole entry, looked up): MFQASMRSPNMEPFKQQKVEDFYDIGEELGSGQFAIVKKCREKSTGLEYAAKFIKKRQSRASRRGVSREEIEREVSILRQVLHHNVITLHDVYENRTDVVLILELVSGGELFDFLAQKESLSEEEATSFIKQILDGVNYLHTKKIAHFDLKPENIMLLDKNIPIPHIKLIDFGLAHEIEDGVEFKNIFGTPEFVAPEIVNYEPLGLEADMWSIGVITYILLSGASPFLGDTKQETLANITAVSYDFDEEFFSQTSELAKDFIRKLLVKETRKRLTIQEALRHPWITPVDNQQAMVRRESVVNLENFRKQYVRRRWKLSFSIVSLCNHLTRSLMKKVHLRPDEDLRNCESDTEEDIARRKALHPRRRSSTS

[31] = molecular target: Activin receptor type-1 (Homo sapiens) (UniProt Q04771); conditions: Compound concentration 1000.0 nM
[32] = test system: Tyrosine-protein kinase ABL1 (Homo sapiens), P00519 [F317L]; conditions: Compound concentration 1000.0 nM
[33] = molecular target: Myosin light chain kinase (Homo sapiens) (UniProt Q32MK0); conditions: Compound concentration 1000.0 nM
Myosin light chain kinase (Homo sapiens), sequence (Q32MK0 whole entry): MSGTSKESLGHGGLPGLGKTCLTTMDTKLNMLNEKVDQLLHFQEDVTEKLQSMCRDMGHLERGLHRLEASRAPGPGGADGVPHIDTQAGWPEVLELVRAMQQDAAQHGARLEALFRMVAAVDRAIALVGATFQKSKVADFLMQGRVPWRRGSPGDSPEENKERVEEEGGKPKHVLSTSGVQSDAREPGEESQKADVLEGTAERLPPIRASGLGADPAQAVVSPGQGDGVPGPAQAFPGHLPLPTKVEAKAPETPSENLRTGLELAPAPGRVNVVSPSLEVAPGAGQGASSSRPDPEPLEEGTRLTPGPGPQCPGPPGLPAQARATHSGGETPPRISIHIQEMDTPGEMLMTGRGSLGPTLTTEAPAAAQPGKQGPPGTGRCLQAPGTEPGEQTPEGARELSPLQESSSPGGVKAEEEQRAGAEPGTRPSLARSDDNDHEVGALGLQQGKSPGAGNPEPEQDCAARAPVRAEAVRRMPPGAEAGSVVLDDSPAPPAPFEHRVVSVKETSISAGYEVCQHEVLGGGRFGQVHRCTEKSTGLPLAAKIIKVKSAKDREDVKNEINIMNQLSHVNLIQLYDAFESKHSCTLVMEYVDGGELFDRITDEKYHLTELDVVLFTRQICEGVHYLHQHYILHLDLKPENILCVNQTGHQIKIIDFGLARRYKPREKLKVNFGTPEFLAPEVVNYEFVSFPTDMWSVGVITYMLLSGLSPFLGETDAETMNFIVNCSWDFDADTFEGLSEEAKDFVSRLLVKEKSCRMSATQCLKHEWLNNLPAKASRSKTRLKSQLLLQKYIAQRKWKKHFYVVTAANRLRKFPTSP

CC(=O)N1CCC(c2ccc(C(=O)NC3=NCCN3)cc2C(F)(F)F)CC1 [BI 0054]
inactive: residual activity [1] 100% | residual activity [2] 98% | residual activity [3] 100% | residual activity [4] 88% | residual activity [5] 100% | residual activity [6] 100% | residual activity [7] 100% | inhibition [8] -0.799% | residual activity [9] 100% | residual activity [10] 90% | residual activity [11] 100% | residual activity [12] 100% | residual activity [13] 100% | residual activity [14] 100% | residual activity [15] 74% | residual activity [16] 98% | inhibition [17] -5.1% | residual activity [18] 81% | residual activity [19] 82% | residual activity [20] 100% | residual activity [21] 70% | residual activity [22] 100% | residual activity [23] 98% | residual activity [24] 100% | residual activity [25] 100% | residual activity [26] 100% | residual activity [27] 99% | residual activity [28] 84% | residual activity [29] 68% | residual activity [30] 100% | residual activity [31] 100% | residual activity [32] 87% | residual activity [33] 100%

CC(=O)N1CCC(c2ccc(C(=O)NC(=N)N)cc2C(F)(F)F)CC1 [BI 9627]
inactive: residual activity [1] 100% | residual activity [2] 100% | residual activity [3] 98% | residual activity [4] 100% | residual activity [5] 100% | residual activity [6] 100% | residual activity [7] 100% | inhibition [8] 23.5% | residual activity [9] 94% | residual activity [10] 100% | residual activity [11] 100% | residual activity [12] 100% | residual activity [13] 100% | residual activity [14] 100% | residual activity [15] 94% | residual activity [16] 100% | inhibition [17] 6.05% | residual activity [18] 100% | residual activity [19] 100% | residual activity [20] 95% | residual activity [21] 97% | residual activity [22] 100% | residual activity [23] 100% | residual activity [24] 100% | residual activity [25] 100% | residual activity [26] 95% | residual activity [27] 100% | residual activity [28] 100% | residual activity [29] 100% | residual activity [30] 100% | residual activity [31] 100% | residual activity [32] 100% | residual activity [33] 100%

— ChEMBL document CHEMBL4507279, “Data for DCP probe BI-9627” (2021)
